Measured values as given in patent publication US11046649B2, “Compounds useful as inhibitors of indoleamine 2,3-dioxygenase and/or tryptophan dioxygenase” (Board of Regents, The University of Texas System, priority 2018, dated 2021).

Each compound was assayed against T1, IDO1 (Homo sapiens, UniProt P14902) (assay: IDO1 cell-based assay). Conditions: HeLa cells, 10 ng/mL IFNgamma, 24 hours with test compound; N-Formyl Kynurenine and L-tryptophan quantified by RFMS.
T1 construct: endogenous in cells; host or cells: HeLa cells (ATCC), IDO1 induced with 10 ng/mL IFNgamma
T1 sequence (P14902 whole entry): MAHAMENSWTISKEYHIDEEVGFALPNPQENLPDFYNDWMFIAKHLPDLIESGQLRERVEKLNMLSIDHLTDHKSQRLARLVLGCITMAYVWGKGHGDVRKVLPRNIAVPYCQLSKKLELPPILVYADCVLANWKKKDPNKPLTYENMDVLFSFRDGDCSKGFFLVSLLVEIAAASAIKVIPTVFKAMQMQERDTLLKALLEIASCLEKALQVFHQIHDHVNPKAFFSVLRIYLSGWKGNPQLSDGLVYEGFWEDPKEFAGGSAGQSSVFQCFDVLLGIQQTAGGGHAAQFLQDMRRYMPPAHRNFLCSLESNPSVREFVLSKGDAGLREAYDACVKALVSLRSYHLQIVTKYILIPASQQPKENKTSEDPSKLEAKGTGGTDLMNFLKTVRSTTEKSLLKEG

In order of rising IC50:
1. CC(c1nc2cc(C(F)(F)F)ccc2[nH]1)[C@H]1[C@@H]2C[C@@H](Oc3ccnc4ccc(F)cc34)C[C@@H]21 (stereo partly drawn) [Example 137, 6-fluoro-4-(((1R,3s,5S,6r)-6-(1-(5-(trifluoromethyl)-1H-benzo[d]imidazol-2-yl)-ethyl)bicyclo[3.1.0]hexan-3-yl)oxy)quinoline]  1.2 nM
2. N-(5-cyanopyridin-2-yl)-2- ((1R,3s,5S,6r)-3-((6- fluoroquinolin-4-yl)oxy)- bicyclo[3.1.0]hexan-6-yl)- propanamide [Example 58]  2 nM
3. CC(C(=O)Nc1cnn(-c2ccccc2)c1)[C@H]1[C@@H]2C[C@@H](Oc3ccnc4ccc(F)cc34)C[C@@H]21 (stereo partly drawn) [Example 143, 2-((1R,3s,5S,6r)-3-((6-fluoroquinolin-4-yl)-oxy)bicyclo[3.1.0]hexan-6-yl)-N-(1-phenyl-1H-pyrazol-4-yl)propanamide]  2.77 nM
4. CCC(C(=O)Nc1ccc(C#N)nn1)[C@H]1[C@@H]2C[C@@H](Oc3ccnc4ccc(F)cc34)C[C@@H]21 (stereo partly drawn) [Example 149, N-(6-cyanopyridazin-3-yl)-2-((1R,3s,5S,6r)-3-((6-fluoroquinolin-4-yl)oxy)-bicyclo[3.1.0]hexan-6-yl)butanamide]  5.49 nM
5. N-(5-(1H-1,2,4-triazol-1- yl)pyridin-2-yl)-2- ((1R,3s,5S,6r)-3-((6- fluoroquinolin-4-yl)- oxy)bicyclo[3.1.0]hexan-6- yl)propanamide [Example 96]  7.1 nM
6. CC(=O)NC12CC(NC(=O)C(C)[C@H]3[C@@H]4C[C@@H](Oc5ccnc6ccc(F)cc56)C[C@@H]43)(C1)C2 (stereo partly drawn) [Example 133, N-(3-acetamidobicyclo-[1.1.1]pentan-1-yl)-2-((1R,3s,5S,6r)-3-((6-fluoro-quinolin-4-yl)oxy)bicyclo-[3.1.0]hexan-6-yl)-propanamide]  420 nM
7. COCC(=O)NC12CC(NC(=O)C(C)[C@H]3[C@@H]4C[C@@H](Oc5ccnc6ccc(F)cc56)C[C@@H]43)(C1)C2 (stereo partly drawn) [Example 132, 2-((1R,3s,5S,6r)-3-((6-fluoroquinolin-4-yl)oxy)-bicyclo[3.1.0]hexan-6-yl)-N-(3-(2-methoxyacetamido)-bicyclo[1.1.1]pentan-1-yl)-propanamide]  511 nM
8. CC(C(=O)NC12CC(NC(=O)CO)(C1)C2)[C@H]1[C@@H]2C[C@@H](Oc3ccnc4ccc(F)cc34)C[C@@H]21 (stereo partly drawn) [Example 129, 2-((1R,3s,5S,6r)-3-((6-fluoroquinolin-4-yl)oxy)-bicyclo[3.1.0]hexan-6-yl)-N-(3-(2-hydroxy-acetamido)bicyclo-[1.1.1]pentan-1-yl)-propanamide]  597 nM
9. CC(C(=O)NC12CC(NC(=O)CC#N)(C1)C2)[C@H]1[C@@H]2C[C@@H](Oc3ccnc4ccc(F)cc34)C[C@@H]21 (stereo partly shown) [Example 130]  636 nM
10. O=C(O)C(C1CC1)[C@H]1[C@@H]2C[C@@H](Oc3ccnc4ccc(F)cc34)C[C@@H]21 (stereo partly drawn) [Example 127, 2-cyclopropyl-2-((1R,3s,5S,6r)-3-((6-fluoroquinolin-4-yl)oxy)-bicyclo[3.1.0]hexan-6-yl)acetic acid]  6310 nM
